# Key:
# SKCO1 cells = experiment: Mitochondrial ATP levels in SKCO1 cells; type: cell-based, human; details: FLVCR1a-silenced vs scramble shRNA SKCO1 cells
# Excerpt: (A, C, E) Activities of the mitochondrial electron transport chain complexes I-IV. FLVCR1a-silenced Caco2 (A), SKCO1 (C) or C80 cells (E) are compared to cells expressing a scramble shRNA. Results were expressed as nmol NAD^+/min/mg mitochondrial protein for complex I, nmol reduced cytochrome c/min/mg mitochondrial protein for complexes II-III, nmol oxidized cytochrome c/min/mg mitochondrial protein for complex IV. Data represent mean±SEM, n=3. For statistical analyses, an unpaired Student's t-test was used; *=p<0.05, **=p<0.01. (B, D, F) Mitochondrial ATP levels measured by a bioluminescent assay kit. FLVCR1a-silenced Caco2 (B), SKCO1 (D) or C80 cells (F) are compared to cells expressing a scramble shRNA. Results are expressed as nmol/mg mitochondrial proteins. […] Results were expressed as nmol NAD^+/min/mg mitochondrial protein for complex I, nmol reduced cytochrome c/min/mg mitochondrial protein for complexes II-III, nmol oxidized cytochrome c/min/mg mitochondrial protein for complex IV. […] (H) Mitochondrial ATP levels measured by a bioluminescent assay kit in Caco2 cells overexpressing FLVCR1a (indicated as FLVCR1a+) compared to cells stably transduced with an empty vector. Results are expressed as nmol/mg mitochondrial proteins. […]
# ATP levels in mitochondria extracts were assessed by the ATP Bioluminescent Assay Kit (Sigma-Aldrich, St. Louis, MO USA, catalog n° FLAA). […]
# BTECs = experiment: Activity of mitochondrial ETC complexes I-IV in BTECs; type: cell-based, human; details: FLVCR1a-silenced vs scramble shRNA BTECs
# Excerpt: Results were expressed as nmol NAD*/min/mg mitochondrial protein for complex I, nmol reduced cytochrome c/min/mg mitochondrial protein for complexes II-III, nmol oxidized cytochrome c/min/mg mitochondrial protein for complex IV. Data represent mean±SEM, n=3. For statistical analyses, an unpaired Student's t-test was used; *=p<0.05, **=p<0.01, *=p<0.001. […] Results are expressed as nmol/mg mitochondrial proteins. Data represent mean±SEM, n=3. For statistical analyses, an unpaired Student's t-test was used; *=p<0.05. […] Results are expressed as pmol CO2/h/mg protein. Data represent mean±SEM, n=3. For statistical analyses, an unpaired Student's t-test was used; **=p<0.01. […] Results were expressed as nmol NAD*/min/mg mitochondrial protein for complex I, nmol reduced cytochrome c/min/mg mitochondrial protein for complexes II-III, nmol oxidized cytochrome c/min/mg mitochondrial protein for complex IV. […] Results are expressed as nmol/mg mitochondrial proteins. […] Results are expressed as pmol CO2/h/mg protein. […] (H) TCA cycle enzymes activities are reported in boxes and expressed as mU/mg mitochondrial proteins. […] Results were expressed as nmol NAD^+/min/mg mitochondrial protein for complex I, nmol reduced cytochrome c/min/mg mitochondrial protein for complexes II-III, nmol oxidized cytochrome c/min/mg mitochondrial protein for complex IV. […] Results are expressed as nmol/mg mitochondrial proteins. […]
substance,measurement,setting,value
"FLVCR1a shRNA: shRNA specifically down-regulating FLVCR1a without targeting FLVCR1b; pLKO.1 lentiviral clone TRCN0000059599, antisense SEQ ID No.: 2 (antisense TTGCTAATGATGCTGTACTGG; sense CCAGTACAGCATCATTAGCAA)",mitochondrial ATP levels,SKCO1 cells,increased
same,activity of ETC complexes,BTECs,enhanced activity of ETC complexes

# — US20240285670A1, “THERAPEUTIC TREATMENT OF TUMORS BY BLOCKING THE HEME SYNTHESIS-EXPORT AXIS” (Università degli Studi di Torino, priority 2021, published 2024)
